The assay concerns the target human ether-à-go-go-related gene (hERG) channel (Kv11.1) (Homo sapiens, UniProt Q12809). In words: whole-cell patch clamp in HEK […] cells stably expressing hERG. The assay is classed as cell-based. In general terms: Patch clamp records ionic current or voltage across a cell membrane.

human ether-à-go-go-related gene (hERG) channel (Kv11.1), sequence (Q12809 whole entry): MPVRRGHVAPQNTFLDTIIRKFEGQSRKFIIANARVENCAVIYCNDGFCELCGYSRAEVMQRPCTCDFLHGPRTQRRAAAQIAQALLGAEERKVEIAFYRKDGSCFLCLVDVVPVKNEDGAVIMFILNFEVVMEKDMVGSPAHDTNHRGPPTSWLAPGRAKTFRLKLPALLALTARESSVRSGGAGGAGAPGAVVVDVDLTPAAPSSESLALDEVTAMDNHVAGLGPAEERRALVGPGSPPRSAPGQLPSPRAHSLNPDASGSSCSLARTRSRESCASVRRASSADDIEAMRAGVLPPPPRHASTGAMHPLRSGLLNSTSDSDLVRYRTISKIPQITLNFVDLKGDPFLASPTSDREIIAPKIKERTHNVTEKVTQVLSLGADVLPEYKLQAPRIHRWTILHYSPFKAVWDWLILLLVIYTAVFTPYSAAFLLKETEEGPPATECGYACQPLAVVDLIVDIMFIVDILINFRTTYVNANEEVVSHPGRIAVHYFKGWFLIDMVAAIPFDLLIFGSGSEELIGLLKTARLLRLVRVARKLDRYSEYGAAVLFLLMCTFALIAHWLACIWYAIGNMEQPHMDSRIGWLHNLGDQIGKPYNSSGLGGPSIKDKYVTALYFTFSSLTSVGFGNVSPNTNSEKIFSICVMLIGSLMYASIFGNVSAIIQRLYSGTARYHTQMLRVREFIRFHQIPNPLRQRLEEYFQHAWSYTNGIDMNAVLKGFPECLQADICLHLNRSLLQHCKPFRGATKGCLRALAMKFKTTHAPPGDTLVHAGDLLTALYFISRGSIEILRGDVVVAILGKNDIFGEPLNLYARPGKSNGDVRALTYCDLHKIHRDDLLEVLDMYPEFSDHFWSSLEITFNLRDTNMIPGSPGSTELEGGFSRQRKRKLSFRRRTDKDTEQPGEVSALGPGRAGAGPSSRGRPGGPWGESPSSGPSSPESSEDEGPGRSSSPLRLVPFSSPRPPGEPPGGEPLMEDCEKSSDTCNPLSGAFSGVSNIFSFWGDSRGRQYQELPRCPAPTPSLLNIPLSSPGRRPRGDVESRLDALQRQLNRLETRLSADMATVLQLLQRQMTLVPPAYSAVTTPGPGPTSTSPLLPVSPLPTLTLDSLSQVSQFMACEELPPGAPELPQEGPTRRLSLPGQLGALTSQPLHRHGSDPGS

As a reminder, the IC50 is the concentration that inhibits the measured activity by half. Lower therefore signals greater potency. On to `Cc1ncc2n1-c1ccc(Cl)cc1C(c1ccccc1F)=NC2` [midazolam], for which 13.6 µM corresponded to half-maximal inhibition (IC50).
